Legend:
Format in all cases: biochemical
Settings in all cases: 10 μM, ATP near Km
AMPK(A1/B1/G1) = molecular target: T1, AMPK(A1/B1/G1) (Homo sapiens, UniProt Q13131); assay: KinaseProfiler AMPK(A1/B1/G1)
T1 construct: purchased Millipore (KinaseProfiler service)
Text: (§1) The compound was run in duplicate at a concentration of ATP near the Km for each individual kinase according to Millipore's specifications.

BLK_m = molecular target: T2, BLK_m (Mus musculus, UniProt P16277); assay: KinaseProfiler BLK_m
T2 construct: purchased Millipore (KinaseProfiler service)
Text: as §1

BTK = molecular target: T3, BTK (Homo sapiens, UniProt Q06187); assay: KinaseProfiler BTK
T3 construct: purchased Millipore (KinaseProfiler service)
Text: as §1

CAMK1 = molecular target: T4, CAMK1 (Homo sapiens, UniProt Q14012); assay: KinaseProfiler CAMK1
T4 construct: purchased Millipore (KinaseProfiler service)
Text: as §1

CDK5/p35 = molecular target: T5, CDK5/p35 (Homo sapiens, UniProt Q00535); assay: KinaseProfiler CDK5/p35
T5 construct: purchased Millipore, Inc. (KinaseProfiler service)
Text: as §1

CDK6/cyclinD3 = molecular target: T6, CDK6/cyclinD3 (Homo sapiens, UniProt Q00534); assay: KinaseProfiler CDK6/cyclinD3
T6 construct: purchased Millipore, Inc. (KinaseProfiler service)
Text: as §1

CK1delta = molecular target: T7, CK1delta (Homo sapiens, UniProt P48730); assay: KinaseProfiler CK1delta
T7 construct: purchased Millipore, Inc. (KinaseProfiler service)
Text: as §1

CK1gamma3 = molecular target: T8, CK1gamma3 (Homo sapiens, UniProt Q9Y6M4); assay: KinaseProfiler CK1gamma3
T8 construct: purchased Millipore, Inc. (KinaseProfiler service)
Text: as §1

CK2 = molecular target: T9, CK2 (Homo sapiens, UniProt P68400); assay: KinaseProfiler CK2
T9 construct: purchased Millipore, Inc. (KinaseProfiler service)
Text: as §1

CK2alpha2 = molecular target: T10, CK2alpha2 (Homo sapiens, UniProt P19784); assay: KinaseProfiler CK2alpha2
T10 construct: purchased Millipore, Inc. (KinaseProfiler service)
Text: as §1

CSK = molecular target: T11, CSK (Homo sapiens, UniProt P41240); assay: KinaseProfiler CSK
T11 construct: purchased Millipore, Inc. (KinaseProfiler service)
Text: as §1

DAPK1 = molecular target: T12, DAPK1 (Homo sapiens, UniProt P53355); assay: KinaseProfiler DAPK1
T12 construct: purchased Millipore, Inc. (KinaseProfiler service)
Text: as §1

DAPK3 = molecular target: T13, DAPK3 (Homo sapiens, UniProt O43293); assay: KinaseProfiler DAPK3
T13 construct: purchased Millipore, Inc. (KinaseProfiler service)
Text: as §1

DCAMKL2 = molecular target: T14, DCAMKL2 (Homo sapiens, UniProt Q8N568); assay: KinaseProfiler DCAMKL2
T14 construct: purchased Millipore, Inc. (KinaseProfiler service)
Text: as §1

EphA5 = molecular target: T15, EphA5 (Homo sapiens, UniProt P54756); assay: KinaseProfiler EphA5
T15 construct: purchased Millipore, Inc. (KinaseProfiler service)
Text: as §1

EphB2 = molecular target: T16, EphB2 (Homo sapiens, UniProt P29323); assay: KinaseProfiler EphB2
T16 construct: purchased Millipore, Inc. (KinaseProfiler service)
Text: as §1

Fes = molecular target: T17, Fes (Homo sapiens, UniProt P07332); assay: KinaseProfiler Fes
T17 construct: purchased Millipore, Inc. (KinaseProfiler service)
Text: as §1

Flt3 = molecular target: T18, Flt3 (Homo sapiens, UniProt P36888); assay: KinaseProfiler Flt3
T18 construct: purchased Millipore, Inc. (KinaseProfiler service)
Text: as §1

IGF-1R = molecular target: T19, IGF-1R (Homo sapiens, UniProt P08069); assay: KinaseProfiler IGF-1R
T19 construct: purchased Millipore, Inc. (KinaseProfiler service)
Text: as §1

IKKalpha = molecular target: T20, IKKalpha (Homo sapiens, UniProt O15111); assay: KinaseProfiler IKKalpha
T20 construct: purchased Millipore, Inc. (KinaseProfiler service)
Text: as §1

JAK2 = molecular target: T21, JAK2 (Homo sapiens, UniProt O60674); assay: KinaseProfiler JAK2
T21 construct: purchased Millipore, Inc. (KinaseProfiler service)
Text: as §1

KDR = molecular target: T22, KDR (Homo sapiens, UniProt P35968); assay: KinaseProfiler KDR
T22 construct: purchased Millipore, Inc. (KinaseProfiler service)
Text: as §1

MARK1 = molecular target: T23, MARK1 (Homo sapiens, UniProt Q9P0L2); assay: KinaseProfiler MARK1
T23 construct: purchased Millipore, Inc. (KinaseProfiler service)
Text: as §1

MARK2 = molecular target: T24, MARK2 (Homo sapiens, UniProt Q7KZI7); assay: KinaseProfiler MARK2
T24 construct: purchased Millipore, Inc. (KinaseProfiler service)
Text: as §1

MEK1 = molecular target: T25, MEK1 (Homo sapiens, UniProt Q02750); assay: KinaseProfiler MEK1
T25 construct: purchased Millipore, Inc. (KinaseProfiler service)
Text: as §1

MSK1 = molecular target: T26, MSK1 (Homo sapiens, UniProt O75582); assay: KinaseProfiler MSK1
T26 construct: purchased Millipore, Inc. (KinaseProfiler service)
Text: as §1

MST2 = molecular target: T27, MST2 (Homo sapiens, UniProt Q13188); assay: KinaseProfiler MST2
T27 construct: purchased Millipore, Inc. (KinaseProfiler service)
Text: as §1

NEK2 = molecular target: T28, NEK2 (Homo sapiens, UniProt P51955); assay: KinaseProfiler NEK2
T28 construct: purchased Millipore, Inc. (KinaseProfiler service)
Text: as §1

p70S6K = molecular target: T29, p70S6K (Homo sapiens, UniProt P23443); assay: KinaseProfiler p70S6K
T29 construct: purchased Millipore, Inc. (KinaseProfiler service)
Text: as §1

PDGFRbeta = molecular target: T30, PDGFRbeta (Homo sapiens, UniProt P09619); assay: KinaseProfiler PDGFRbeta
T30 construct: purchased Millipore, Inc. (KinaseProfiler service)
Text: as §1

PhKgamma2 = molecular target: T31, PhKgamma2 (Homo sapiens, UniProt P15735); assay: KinaseProfiler PhKgamma2
T31 construct: purchased Millipore, Inc. (KinaseProfiler service)
Text: as §1

Pim-2 = molecular target: T32, Pim-2 (Homo sapiens, UniProt Q9P1W9); assay: KinaseProfiler Pim-2
T32 construct: purchased Millipore, Inc. (KinaseProfiler service)
Text: as §1

Pim-3 = molecular target: T33, Pim-3 (Homo sapiens, UniProt Q86V86); assay: KinaseProfiler Pim-3
T33 construct: purchased Millipore, Inc. (KinaseProfiler service)
Text: as §1

PKCbetaII = molecular target: T34, PKCbetaII (Homo sapiens, UniProt P05771); assay: KinaseProfiler PKCbetaII
T34 construct: purchased Millipore, Inc. (KinaseProfiler service)
Text: as §1

Plk2 = molecular target: T35, Plk2 (Homo sapiens, UniProt Q9NYY3); assay: KinaseProfiler Plk2
T35 construct: purchased Millipore, Inc. (KinaseProfiler service)
Text: as §1

ROCK-II = molecular target: T36, ROCK-II (Homo sapiens, UniProt O75116); assay: KinaseProfiler ROCK-II
T36 construct: purchased Millipore, Inc. (KinaseProfiler service)
Text: as §1

Rse = molecular target: T37, Rse (Homo sapiens, UniProt Q06418); assay: KinaseProfiler Rse
T37 construct: purchased Millipore, Inc. (KinaseProfiler service)
Text: as §1

Rsk2 = molecular target: T38, Rsk2 (Homo sapiens, UniProt P51812); assay: KinaseProfiler Rsk2
T38 construct: purchased Millipore, Inc. (KinaseProfiler service)
Text: as §1

SRPK2 = molecular target: T39, SRPK2 (Homo sapiens, UniProt P78362); assay: KinaseProfiler SRPK2
T39 construct: purchased Millipore, Inc. (KinaseProfiler service)
Text: as §1

Syk = molecular target: T40, Syk (Homo sapiens, UniProt P43405); assay: KinaseProfiler Syk
T40 construct: purchased Millipore, Inc. (KinaseProfiler service)
Text: as §1

TSSK1 = molecular target: T41, TSSK1 (Homo sapiens, UniProt Q9BXA7); assay: KinaseProfiler TSSK1
T41 construct: purchased Millipore, Inc. (KinaseProfiler service)
Text: as §1

Yes = molecular target: T42, Yes (Homo sapiens, UniProt P07947); assay: KinaseProfiler Yes
T42 construct: purchased Millipore, Inc. (KinaseProfiler service)
Text: as §1

ZAP-70 = molecular target: T43, ZAP-70 (Homo sapiens, UniProt P43403); assay: KinaseProfiler ZAP-70
T43 construct: purchased Millipore, Inc. (KinaseProfiler service)
Text: as §1

T34 sequence (P05771 1-673 isoform P05771-2): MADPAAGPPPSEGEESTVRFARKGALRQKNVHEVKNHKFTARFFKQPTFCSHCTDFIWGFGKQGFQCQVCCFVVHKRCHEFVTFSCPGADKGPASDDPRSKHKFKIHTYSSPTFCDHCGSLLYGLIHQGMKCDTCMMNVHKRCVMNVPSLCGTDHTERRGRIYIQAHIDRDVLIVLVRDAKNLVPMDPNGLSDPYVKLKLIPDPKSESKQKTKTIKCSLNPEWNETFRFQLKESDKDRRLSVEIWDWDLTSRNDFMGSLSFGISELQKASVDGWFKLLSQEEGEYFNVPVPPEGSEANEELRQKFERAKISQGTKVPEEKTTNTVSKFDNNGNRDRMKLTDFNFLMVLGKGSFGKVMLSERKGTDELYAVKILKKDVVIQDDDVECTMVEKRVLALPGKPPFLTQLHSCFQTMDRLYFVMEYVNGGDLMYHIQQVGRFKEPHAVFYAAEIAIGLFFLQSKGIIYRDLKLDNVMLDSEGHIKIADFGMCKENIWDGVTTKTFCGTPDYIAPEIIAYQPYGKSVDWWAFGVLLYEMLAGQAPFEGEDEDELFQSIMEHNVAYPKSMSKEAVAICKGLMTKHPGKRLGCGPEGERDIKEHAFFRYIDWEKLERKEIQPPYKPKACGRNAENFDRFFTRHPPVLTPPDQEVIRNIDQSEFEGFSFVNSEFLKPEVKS
T27 sequence (Q13188 whole entry): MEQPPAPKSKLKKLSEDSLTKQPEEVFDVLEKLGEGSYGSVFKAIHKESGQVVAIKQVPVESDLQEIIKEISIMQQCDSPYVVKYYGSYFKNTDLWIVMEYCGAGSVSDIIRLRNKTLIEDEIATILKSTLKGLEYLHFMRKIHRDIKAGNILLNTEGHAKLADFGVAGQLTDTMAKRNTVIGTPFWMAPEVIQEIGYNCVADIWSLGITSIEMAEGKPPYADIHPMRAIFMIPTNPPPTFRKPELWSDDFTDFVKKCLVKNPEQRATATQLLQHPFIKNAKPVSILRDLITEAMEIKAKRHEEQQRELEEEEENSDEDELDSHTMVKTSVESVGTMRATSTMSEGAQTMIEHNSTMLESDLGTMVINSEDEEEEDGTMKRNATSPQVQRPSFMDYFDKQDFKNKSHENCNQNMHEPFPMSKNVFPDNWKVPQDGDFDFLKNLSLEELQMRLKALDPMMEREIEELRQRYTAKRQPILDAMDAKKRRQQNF
T31 sequence (P15735 whole entry): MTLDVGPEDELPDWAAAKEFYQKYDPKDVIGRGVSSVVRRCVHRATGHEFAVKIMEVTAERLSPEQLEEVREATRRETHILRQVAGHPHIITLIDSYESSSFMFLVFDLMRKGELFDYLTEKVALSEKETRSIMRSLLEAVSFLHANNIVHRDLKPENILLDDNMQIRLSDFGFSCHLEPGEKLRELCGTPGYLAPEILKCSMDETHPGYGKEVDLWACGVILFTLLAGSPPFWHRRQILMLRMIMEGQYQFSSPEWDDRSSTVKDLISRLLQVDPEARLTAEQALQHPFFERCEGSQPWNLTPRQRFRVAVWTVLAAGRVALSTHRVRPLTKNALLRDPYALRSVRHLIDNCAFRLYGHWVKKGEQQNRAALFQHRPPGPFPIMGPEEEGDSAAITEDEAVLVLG
T25 sequence (Q02750 whole entry): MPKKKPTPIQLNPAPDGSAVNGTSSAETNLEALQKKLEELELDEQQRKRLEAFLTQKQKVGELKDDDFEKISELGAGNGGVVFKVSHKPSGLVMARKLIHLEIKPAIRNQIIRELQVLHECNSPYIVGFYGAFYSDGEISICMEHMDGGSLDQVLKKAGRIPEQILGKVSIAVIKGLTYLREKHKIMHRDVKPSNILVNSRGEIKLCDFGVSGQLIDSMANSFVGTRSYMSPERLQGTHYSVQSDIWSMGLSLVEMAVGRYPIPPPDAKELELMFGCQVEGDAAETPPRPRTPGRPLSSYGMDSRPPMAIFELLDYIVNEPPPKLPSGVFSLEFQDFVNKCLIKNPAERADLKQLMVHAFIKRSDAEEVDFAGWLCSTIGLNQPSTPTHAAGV
T3 sequence (Q06187 whole entry): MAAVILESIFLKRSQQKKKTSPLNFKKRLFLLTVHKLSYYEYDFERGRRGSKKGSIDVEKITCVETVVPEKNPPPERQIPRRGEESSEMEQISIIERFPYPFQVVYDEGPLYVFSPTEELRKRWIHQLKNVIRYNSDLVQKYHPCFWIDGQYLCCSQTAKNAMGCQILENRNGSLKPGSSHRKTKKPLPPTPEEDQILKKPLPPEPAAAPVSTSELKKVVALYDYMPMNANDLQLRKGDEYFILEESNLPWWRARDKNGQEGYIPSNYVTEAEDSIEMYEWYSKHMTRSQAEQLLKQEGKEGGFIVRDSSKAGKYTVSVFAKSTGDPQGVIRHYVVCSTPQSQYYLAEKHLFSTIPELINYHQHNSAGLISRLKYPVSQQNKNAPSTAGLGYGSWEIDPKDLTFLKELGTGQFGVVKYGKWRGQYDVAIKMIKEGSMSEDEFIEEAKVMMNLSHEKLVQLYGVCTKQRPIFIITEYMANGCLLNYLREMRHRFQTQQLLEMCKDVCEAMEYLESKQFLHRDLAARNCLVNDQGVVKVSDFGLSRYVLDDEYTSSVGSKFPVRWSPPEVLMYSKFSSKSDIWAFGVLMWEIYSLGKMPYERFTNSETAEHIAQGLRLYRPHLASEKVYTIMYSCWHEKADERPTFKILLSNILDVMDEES
T14 sequence (Q8N568 whole entry): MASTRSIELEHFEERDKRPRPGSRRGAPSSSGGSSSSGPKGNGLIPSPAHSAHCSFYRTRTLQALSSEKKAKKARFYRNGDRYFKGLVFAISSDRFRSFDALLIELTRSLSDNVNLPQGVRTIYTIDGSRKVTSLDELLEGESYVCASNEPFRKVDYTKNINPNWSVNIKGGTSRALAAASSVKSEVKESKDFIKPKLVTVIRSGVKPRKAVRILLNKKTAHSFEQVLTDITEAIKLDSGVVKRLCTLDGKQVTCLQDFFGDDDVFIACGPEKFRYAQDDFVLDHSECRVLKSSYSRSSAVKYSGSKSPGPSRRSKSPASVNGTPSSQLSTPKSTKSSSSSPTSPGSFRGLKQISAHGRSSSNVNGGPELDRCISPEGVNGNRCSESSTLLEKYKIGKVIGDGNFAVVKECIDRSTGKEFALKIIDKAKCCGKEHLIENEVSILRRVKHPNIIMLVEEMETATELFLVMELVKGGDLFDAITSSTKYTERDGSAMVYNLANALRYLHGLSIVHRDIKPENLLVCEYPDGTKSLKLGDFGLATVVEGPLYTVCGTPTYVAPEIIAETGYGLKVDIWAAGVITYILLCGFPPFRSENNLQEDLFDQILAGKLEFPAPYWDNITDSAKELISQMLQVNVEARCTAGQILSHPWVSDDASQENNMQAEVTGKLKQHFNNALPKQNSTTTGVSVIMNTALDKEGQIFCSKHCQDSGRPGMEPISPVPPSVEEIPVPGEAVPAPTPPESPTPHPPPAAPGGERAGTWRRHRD
T15 sequence (P54756 25-1037): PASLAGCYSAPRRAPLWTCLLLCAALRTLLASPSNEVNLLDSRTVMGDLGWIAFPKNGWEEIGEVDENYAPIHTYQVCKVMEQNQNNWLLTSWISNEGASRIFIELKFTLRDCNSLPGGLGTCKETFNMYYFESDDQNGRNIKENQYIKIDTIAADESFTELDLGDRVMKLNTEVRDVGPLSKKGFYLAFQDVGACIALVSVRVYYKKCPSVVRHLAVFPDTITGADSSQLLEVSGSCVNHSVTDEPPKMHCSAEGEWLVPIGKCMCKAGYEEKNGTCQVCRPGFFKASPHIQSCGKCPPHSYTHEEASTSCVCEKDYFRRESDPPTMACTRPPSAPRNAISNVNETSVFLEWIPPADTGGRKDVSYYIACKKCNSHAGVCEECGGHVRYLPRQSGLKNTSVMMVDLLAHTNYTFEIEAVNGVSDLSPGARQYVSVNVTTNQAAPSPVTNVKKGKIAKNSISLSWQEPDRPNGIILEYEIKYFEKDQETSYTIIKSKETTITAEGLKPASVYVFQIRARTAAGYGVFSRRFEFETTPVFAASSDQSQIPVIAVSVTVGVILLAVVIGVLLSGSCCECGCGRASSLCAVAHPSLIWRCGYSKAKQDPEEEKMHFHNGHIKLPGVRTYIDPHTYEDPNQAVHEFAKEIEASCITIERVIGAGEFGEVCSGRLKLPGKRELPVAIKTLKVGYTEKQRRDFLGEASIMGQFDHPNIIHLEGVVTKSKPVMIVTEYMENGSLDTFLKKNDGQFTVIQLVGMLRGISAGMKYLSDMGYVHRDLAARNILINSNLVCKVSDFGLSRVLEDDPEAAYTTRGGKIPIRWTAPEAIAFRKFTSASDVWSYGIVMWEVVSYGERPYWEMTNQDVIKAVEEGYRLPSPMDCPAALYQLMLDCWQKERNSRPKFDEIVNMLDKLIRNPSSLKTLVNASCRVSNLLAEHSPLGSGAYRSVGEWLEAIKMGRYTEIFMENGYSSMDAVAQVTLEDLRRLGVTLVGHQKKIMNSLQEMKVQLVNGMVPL

With Cc1c(-c2cnn(C)c2)nn(-c2ccccc2)c1NC(=O)Nc1cc(C(F)(F)F)nn1-c1ccccc1 [Example 3, 1-(1′,4-dimethyl-1-phenyl-1H,1′H-[3,4′-bipyrazol]-5-yl)-3-(1-phenyl-3-(trifluoromethyl)-1H-pyrazol-5-yl)urea] the “Avg POC” value (AMPK(A1/B1/G1)) was 149.5 POC, the “Avg POC” value (BLK_m) was 108.5 POC and the “Avg POC” value (BTK) was 123 POC. The “Avg POC” value (CAMK1) was 103.5 POC, the “Avg POC” value (CDK5/p35) was 110.5 POC and the “Avg POC” value (CDK6/cyclinD3) was 107.5 POC. The “Avg POC” value (CK1delta) was 141 POC, the “Avg POC” value (CK1gamma3) was 125 POC and the “Avg POC” value (CK2) was 96.5 POC. The “Avg POC” value (CK2alpha2) was 102.5 POC, the “Avg POC” value (CSK) was 137.5 POC and the “Avg POC” value (DAPK1) was 137.5 POC. The “Avg POC” value (DAPK3) was 118.5 POC, the “Avg POC” value (DCAMKL2) was 222.5 POC and the “Avg POC” value (EphA5) was 116 POC. The “Avg POC” value (EphB2) was 118.5 POC, the “Avg POC” value (Fes) was 123 POC and the “Avg POC” value (Flt3) was 71 POC. For the same molecule, the “Avg POC” value (IGF-1R) was 74.5 POC, the “Avg POC” value (IKKalpha) was 127 POC and the “Avg POC” value (JAK2) was 136.5 POC. The “Avg POC” value (KDR) was 115.5 POC, the “Avg POC” value (MARK1) was 112 POC and the “Avg POC” value (MARK2) was 106.5 POC. For the same molecule, the “Avg POC” value (MEK1) was 111 POC, the “Avg POC” value (MSK1) was 152.5 POC and the “Avg POC” value (MST2) was 102.5 POC. The “Avg POC” value (NEK2) was 125.5 POC, the “Avg POC” value (p70S6K) was 273.5 POC and the “Avg POC” value (PDGFRbeta) was 175 POC. For the same molecule, the “Avg POC” value (PhKgamma2) was 115.5 POC, the “Avg POC” value (Pim-2) was 117.5 POC and the “Avg POC” value (Pim-3) was 107.5 POC. The “Avg POC” value (PKCbetaII) was 96.5 POC, the “Avg POC” value (Plk2) was 106 POC and the “Avg POC” value (ROCK-II) was 110 POC. For the same molecule, the “Avg POC” value (Rse) was 106.5 POC, the “Avg POC” value (Rsk2) was 134 POC and the “Avg POC” value (SRPK2) was 112.5 POC. The “Avg POC” value (Syk) was 101 POC, the “Avg POC” value (TSSK1) was 83.5 POC and the “Avg POC” value (Yes) was 114 POC. The “Avg POC” value (ZAP-70) was 135 POC.
